Data reported in patent US20070082858A1, “Methods and compositions for the prevention of toxic side effects of aminoglycoside medications” (priority 2004, published 2007).

Assays:
MDCK cells [1] = assay: GTTR uptake into MDCK cells under TRPV1 agonists/antagonists, cation channel blockers, cations and pH (30-60 seconds, 20° C., FATX fixation, confocal imaging); conditions: 0.5 or 5 mM La^+++ in HBSS pH 7.3, 30 seconds
Description: MDCK cells were used as a model system to test regulation of GTTR uptake by conditions known to produce or modify a cation current through the TRPV1 channel. Conditions tested were varying extracellular calcium concentrations, pH, specific agonists, specific antagonists, and the non-specific cation channel blocker Ruthenium Red. In addition, we pre-mixed PIP2 with GTTR to determine whether that anionic phospholipid, known to bind gentamicin, would alter GTTR uptake. All these assays were done at room temperature (20° C.), for 30 or 60 seconds, and using doses of GTTR of 5 to 10 μg/ml, which are far below the typical therapeutic level of <300 μg/ml. Buffers used for treatment were as described for each experiment. Cells were quickly washed to replace culture medium with treatment buffer, treated as indicated, washed again after treatment, fixed immediately with 4% formaldehyde and 0.5% Triton X-100 (FATX), and washed prior to imaging.
Methods: Cells were seeded into 8-well coverglass chambers at 3000 cells/well and grown for 5 days.
Cells were washed three times with the buffer to be used in the particular experiment, treated with GTTR and experimental variable for 30 or 60 seconds at 20° C., precluding endocytosis. Following treatment, cells were rinsed three times with buffer, then fixed and delipidated with 4% formaldehyde plus 0.5% Triton X-100 (FATX) for 45 minutes. Following fixation, cells were rinsed with PBS (Invitrogen, CA) for at least 4-6 times, or until foaming in the suction pipette ceased. In contrast to previous experiments, no FBS was present in the treatment media, allowing for more rapid uptake of the antibiotic-based GTTR.
MDCK cells were washed with Hank's buffered salt solution (HBSS; Invitrogen, CA), then placed into buffers of varying potassium concentrations. HBSS was mixed with equi-osmolar KCl/HBSS to produce the required K^+ concentrations. Cells were treated with 1 μg/mL GTTR for 1 minute, then washed and fixed as described above.
Cells were washed with PBS (Invitrogen, CA), then placed into buffers containing varying concentrations of calcium, obtained by mixing HBSS with equimolar CaCl2, each at pH 7.3. Cells were treated with 5 μg/mL of GTTR for 30 seconds, then washed and fixed as above.
Cells were washed with saline, then treated with 5 μg/mL of GTTR in saline buffers of varying pH for 30 seconds, then washed and fixed as above. Sodium hydroxide and hydrochloric acid were used to alter pH. These experiments were performed in three different saline buffers: (i) PBS (no calcium), (ii) a mixture of […] for a final calcium concentration of 0.32 mM, and (iii) a mixture of three parts PBS to one part HBSS for a final calcium concentration of 0.97 mM.
Cells were washed three times with Ca^++-free saline (0.9% NaCl), then treated with 5 μg/mL GTTR and one of the following for 30 seconds: TRPV1 agonists (resiniferatoxin [RTX]; or anandamide [AND]; Alexis Biochemicals, San Diego, Calif.); or antagonists (iodo-RTX, or SB 366791; Tocris, Ellisville, Mo.). Cells were then washed in saline and fixed as above.
Cells were washed three times with Ca^++-free 0.9% NaCl, then treated with 5 μg/mL GTTR and one of the following for 30 seconds: 100 μM Ruthenium Red, 100 μM Ruthenium Red plus one of the TRPV1 agonists or antagonists described above; or lanthanum (La^+++) at 0.5 or 5 mM.

MDCK cells [2] = assay: Gentamicin immunolabeling of MDCK cells incubated with unlabeled gentamicin and La^+++; assay type: cell-based, canine; conditions: 0.05, 0.5 and 5 mM La^+++, unlabeled gentamicin 30 seconds
Experimental: […] Cells were rinsed twice with PBS, fixed with 4% FA, then permeabilized with ice-cold methanol for 5 minutes, and rinsed 3 times with PBS, as described previously (Steyger et al., 2003). Cells were immunoblocked in 10% goat serum in PBS for 30 minutes, and then incubated with 50 μg/mL rabbit anti-gentamicin IgG (American Quaalex, San Clemente, Calif.) for 1 hour. After washing with 1% goat serum in PBS, cells were further incubated with 20 μg/mL Alexa-488-conjugated goat-anti-rabbit IgG antisera (Molecular Probes, Eugene, Oreg.) for 45 minutes, washed, post-fixed with 4% FA for 15 minutes, and washed again. For immunocytochemical controls, the primary IgG were omitted, or adsorbed with excess gentamicin (3 mg/mL) for 30 minutes prior to addition to cells. All wells were imaged using confocal microscopy.

OK cells = assay: GTTR uptake, saturability, time and temperature in OK cells; assay type: cell-based, opossum
Experimental: (§1) Both OK and MDCK cells were used in these studies. Both cell lines were treated with GTTR at 1 μg/ml in complete culture medium for two hours at either 37° C. or over ice. These cells were also treated with a dose range of 0 to 4000 μg/ml of unlabeled GT. Cells were washed and imaged live, then fixed with FATX, and washed again with buffer prior to re-imaging (as in FIG. 6, A3). […] Thus, cytoplasmic, but not endosomal, uptake of GTTR was saturable.
(§2) GTTR treatment: Subconfluent MDCK or OK cells were treated with 1 μg/mL of GTTR, in complete medium, for 2 hours at 37° C. or on ice. (The amount of GTTR is expressed as the weight of the gentamicin moiety within the conjugate.) In competition experiments, MDCK cells were simultaneously treated with unlabeled gentamicin (up to 4 mg/mL) for 2 hours.
Fixation, delipidation, and washing: After treatment, cells were washed three times with complete medium, and then immediately imaged live (see below; FIG. 27A), or fixed. […] Alternatively, cells were fixed in 4% formaldehyde alone (FA), washed and imaged (FIG. 27C), prior to delipidated with 0.5% Triton X-100 in PBS, washed thoroughly, and imaged again (FIG. 27D). Control cells were incubated with hydrolyzed TR (at the same concentration as the TR moiety in the GTTR experiments) and then imaged live, or fixed, delipidated, washed and then imaged.
Both OK and MDCK cells were treated with GTTR at 1 μg/mL in complete culture medium for 2 hours at either 37° C. or over ice. These cells were also treated with a dose range of 0 to 4000 μg/mL of unlabeled GT. Cells were washed and imaged live (as in FIG. 27A), then fixed with FATX, and washed again with PBS prior to re-imaging (as in FIG. 27B). […]
OK cells were treated with 1 μg/mL of GTTR in complete culture medium, at 37° C. or on ice, for increasing time periods. […] (Note that live images were acquired without washing out GTTR from the extracellular medium, so fluorescence is visible outside the cells.) No endosomes were observed on OK cells treated on ice for 2 hours (FIG. 28, B1 inset). […]

[3] = tested on: bullfrog saccular explants; assay: GTTR labeling of bullfrog saccular explants in vitro (specificity, Example 6); assay type: cell-based, Rana catesbeiana; conditions: 300 μg/ml GTTR plus 40-fold excess unconjugated GT (12 mg/ml), 30 minutes
Experimental: Gentamicin sulfate (Sigma; 50 mg/ml in K2CO3, pH 9) and succinimidyl esters of Texas Red (Molecular Probes; 2 mg/ml in dimethyl formamide) were agitated together overnight to produce a gentamicin-Texas red conjugate (GTTR). Typically, 4.4 ml of 50 mg/ml (final volume) gentamicin sulfate (GT) was mixed with 0.6 ml of 2 mg/ml Texas Red esters (TR) to produce an approximately 300:1 molar ratio of GT:GTTR. A high ratio of free gentamicin to TR esters ensures a minimum of unbound TR molecules, and a binding ratio of 1 TR molecule to 1 GT molecule (Sandoval et al. 1998). Gentamicin sulfate has three isoforms with molecular weights of […], (C2) 463.5, and (C1a) 477.6. Texas Red succinimidyl esters have a molecular weight of 817. […]
For confocal microscopy, excised saccular explants were individually pre-loaded (for 40 minutes) with 50 μM MitoTracker, 50 nM Lysotracker Green, 1 μM NBD-ceramide and 1 μM ERtracker (Molecular Probes) in Wolfe-Quimby amphibian culture media to label lysosomes, Golgi bodies and endoplasmic reticulum, respectively, prior to incubation with 300 μg/ml GT/GTTR for 2 hours. […] For immunocytochemistry of gentamicin, explants were incubated with 300 μg/ml unconjugated gentamicin for 30 minutes or 2 hours, fixed, ice-cold acetone-permeabilized, and processed for indirect fluorescence immunocytochemistry. […]

MDCK kidney cell line = assay: Fluorescent microplate assay quantifying GTTR uptake; assay type: cell-based, canine; conditions: 37° C. for two hours or room temperature for ten minutes
Description: A fluorescent microplate assay was developed using the MDCK kidney cell line to quantify the modulation of GTTR uptake by agonists/antagonists of the TRVP1 channel (pH, Ca^2+, RTX, and iodo-RTX).

MDCK cells [4] = assay: GTTR uptake, distribution and saturability in MDCK cells (2 hours); assay type: cell-based, canine
Experimental: MDCK cells were treated with 1 μg/ml purified GTTR for […] in complete medium at 37° C., then washed 3× with complete medium.
as §1, §2
Fixation, delipidation, and washing: After treatment, cells were washed three times with complete medium, and then immediately imaged live (see below; FIG. 27A), or fixed. […] Alternatively, cells were fixed in 4% formaldehyde alone (FA), washed and imaged (FIG. 27C), prior to delipidated with 0.5% Triton X-100 in PBS, washed thoroughly, and imaged again (FIG. 27D). […]

Molecule	GTTR uptake (MDCK cells [1])	intensity of gentamicin immunofluorescence (unconjugated gentamicin uptake) (MDCK cells [2])	cytoplasmic and nuclear GTTR (OK cells; OK cells, 1 μg/ml GTTR 2 hours, 37° C. or ice, unlabeled GT 0 to 4000 μg/ml)	cell morphology (OK cells; OK cells, 4 mg/mL gentamicin, 2 hours)	endosomal (vesicular) accumulation of GTTR (OK cells; live cells at 37° C., highest dose of unlabeled GT (4 mg/ml))	GTTR fluorescence in saccular explants [3]	GTTR uptake (quantitative microplate fluorescence) (MDCK kidney cell line)	cytoplasmic and nuclear GTTR (MDCK cells [4]; 1 μg/ml GTTR 2 hours, 37° C. or ice, unlabeled GT 0 to 4000 μg/ml)	cell morphology (MDCK cells [4]; 4 mg/mL gentamicin, 2 hours)
[La+3] [La^+++, Lanthanum]	serially decreased	serially decreased							
gentamicin [unlabeled GT]			serially reduced the amount of GTTR	flattening of cells	not visibly altered	reduced fluorescence in the sensory epithelium	reduced GTTR uptake	serially reduced the amount of GTTR	flattening of cells
